Reference: patent US7910575B2, “Prophylactic or therapeutic agents for allergic ophthalmic diseases or allergic nasal diseases, comprising tricyclic triazolobenzazepine derivative” (Meiji Seika Kaisha, Ltd., priority 2006, dated 2011)
Marks after values point to notes of the source that are not given here.

Legend:
[1] = WO 99/16770; cited from earlier work
[2] = test system: rabbit eye (conjunctiva); assay: Severe eye irritation test using rabbits; format: in vivo; conditions: 1%, instillation six times per day at 30 min intervals for two days
[3] = test system: allergic rhinitis; assay: Prophylactic effect on allergic rhinitis, oral administration; format: in vivo, rat; conditions: 15 min before antigen administration
Procedure: The prophylactic effect of compound B on allergic rihinitis in the same manner as in Test Example 4-1, except that compound B was suspended in hydroxypropylmethylcellulose and the suspension was orally administered. The medicament was administered 15 min before the administration of the antigin (start of allergy).

In the case of `COc1cc2[nH]c(=O)c3nn(C(OC(=O)OC(C)C)C(C)C)nc3c(=O)c2cc1OC` (stereo not shown) [Compound B, 2-(1-Isopropoxycarbonyloxy-2-methylpropyl)-7,8-dimethoxy-4(5H),10-dioxo-2H-1,2,3-triazolo[4,5-c][1]benzazepine], the “improvement of absorption upon oral administration as compared with compound A” value [1] is listed as “by a factor of seven”, the eye irritation [2] is listed as “only slight reddening of the conjunctiva was observed” and the “Increase in dye leakage amount Inhibition ratio” value ([3]; 1 mg/kg (200 μg/rat)) is listed as 46.3% **. For the same molecule, the “Increase in dye leakage amount Inhibition ratio” value ([3]; 5 mg/kg (1000 μg/rat)) was 81.9% **.
